Measurements from patent US11306117B2, “Whitening composition containing novel quercetin-based compound” (AMOREPACIFIC CORPORATION, priority 2017, dated 2022).

What was measured:
mushroom tyrosinase = assay: Inhibition of tyrosinase activity; type: biochemical; settings: L-tyrosine, 37° C., 20 minutes, absorbance 490 nm
Protocol: The effect of New Materials 31 and 32 on inhibiting tyrosinase activity was evaluated.
Specifically, tyrosinase and tyrosine derived from mushroom were obtained from Sigma Chemical. Together with 150 μl of 0.1 M phosphate buffer (pH 6.5), 8 μl of mushroom tyrosinase (2,100 unit/ml) and 0.05 M concentration of L-tyrosine, arbutin and New Materials 31 and 32 were treated at the concentrations of following Table 3, respectively. The tyrosinase activity was evaluated by performing the enzyme reaction at 37° C. for 20 minutes and then measuring absorbance at 490 nm using a microplate reader (Bio-Rad 3550, Richmond, Calif., U.S.A.).

Mel-Ab cell line = assay: Inhibition of melanogenesis in Mel-Ab cells (method of Dooley); type: cell-based, C57BL/6; settings: melanin by absorbance at 400 nm after 5 days
Protocol: The effects of New Materials 31 and 32 on inhibiting melanogenesis were compared with Kojic acids which have been known to have an excellent skin whitening effect, and measured.
Specifically, the degree of melanogenesis in cells was measured by a method of Dooley. As the cell line, Mel-Ab cell line (Falcon, U.S.A.) derived from a skin pigment of C57BL/6 was used. Culturing was made under the condition of 37° C., 5% CO2 of a DMEM medium containing 10% placenta serum, 100 nM 12-O-tetradecanoylphorbol-13-acetate, and 1 nM Cholera Toxin. The test materials were treated in the manner where the cultured Mel-Ab cell was isolated with 0.25% trypsin-EDTA, and inoculated again with the same number (1×10^5 cells/well) in the 24-well plate, and then the medium was replaced with a medium containing the test materials for two days from the second day. As the test materials, 5 ppm, 10 ppm, 25 ppm and 50 ppm of New Materials 31 and 32, 25 ppm, 50 ppm and 100 ppm of Kojic acids and DMSO (control) were used. After 5 days, the test materials were treated with 1N-NaOH to dissolve melanin contained in the cell, and the amount of melanin was measured by measuring absorbance at 400 nm. The concentration (IC50) of the material necessary for reducing melanogenesis of melanocyte by half was calculated, and the results are shown in following Table 4.

Row | Compound | IC50 inhibiting tyrosinase activity (mushroom tyrosinase) | IC50 inhibiting melanogenesis (Mel-Ab cell line)
1 | OC[C@H]1O[C@@H](Oc2ccc(O)cc2)[C@H](O)[C@@H](O)[C@@H]1O [Arbutin, arbutin, reference compound] | 149 ppm | –
2 | O=c1cc(CO)occ1O [Kojic acids, reference compound] | – | 39.36 ppm
